According to PubChem BioAssay (NCI):
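Protocol summary: plate cells (96-well), add compound at 5 concentrations, incubate 48 h, interpolate endpoints linearly. Here, GI50 denotes the concentration required for 50% inhibition of growth. TGI: concentration producing complete growth inhibition.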

Assays:
Experiment in all cases: NCI-60 cell line screen, 48 h; in the data active = GI50 below about 0.43 µM; inactive = the rest
A498 renal = system: A498 renal
NCI-H460 lung = system: NCI-H460 lung
UACC-257 melanoma = system: UACC-257 melanoma
SF-539 CNS = system: SF-539 CNS
SF-268 CNS = system: SF-268 CNS
ACHN renal = system: ACHN renal
HT29 colon = system: HT29 colon
KM12 colon = system: KM12 colon
SNB-19 CNS = system: SNB-19 CNS
NCI-H226 lung = system: NCI-H226 lung
PC-3 prostate = system: PC-3 prostate
HCT-116 colon = system: HCT-116 colon
NCI-H23 lung = system: NCI-H23 lung
MDA-MB-231 breast = system: MDA-MB-231 breast
SF-295 CNS = system: SF-295 CNS
HOP-62 NSCLC = system: HOP-62 NSCLC
MOLT-4 leukemia = system: MOLT-4 leukemia
UO-31 renal = system: UO-31 renal
OVCAR-5 ovarian = system: OVCAR-5 ovarian
CAKI-1 renal = system: CAKI-1 renal
RPMI-8226 leukemia = system: RPMI-8226 leukemia
SK-MEL-5 melanoma = system: SK-MEL-5 melanoma
BT-549 breast = system: BT-549 breast
HS 578T breast = system: HS 578T breast
EKVX NSCLC = system: EKVX NSCLC
MCF7 breast = system: MCF7 breast
IGROV1 ovarian = system: IGROV1 ovarian
NCI-H522 lung = system: NCI-H522 lung
SN12C renal = system: SN12C renal
T-47D breast = system: T-47D breast
NCI/ADR-RES ovarian = system: NCI/ADR-RES ovarian
HCT-15 colon = system: HCT-15 colon
UACC-62 melanoma = system: UACC-62 melanoma
RXF 393 renal = system: RXF 393 renal
K-562 leukemia = system: K-562 leukemia
A549 NSCLC = system: A549 NSCLC
U251 CNS = system: U251 CNS
SNB-75 CNS = system: SNB-75 CNS
OVCAR-8 ovarian = system: OVCAR-8 ovarian
DU-145 prostate = system: DU-145 prostate
HCC-2998 colon = system: HCC-2998 colon
786-0 renal = system: 786-0 renal
SW-620 colon = system: SW-620 colon
SK-MEL-28 melanoma = system: SK-MEL-28 melanoma
TK-10 renal = system: TK-10 renal
LOX IMVI melanoma = system: LOX IMVI melanoma
SR leukemia = system: SR leukemia
HOP-92 NSCLC = system: HOP-92 NSCLC
HL-60(TB) leukemia = system: HL-60(TB) leukemia
OVCAR-4 ovarian = system: OVCAR-4 ovarian
CCRF-CEM leukemia = system: CCRF-CEM leukemia
SK-OV-3 ovarian = system: SK-OV-3 ovarian
COLO 205 colon = system: COLO 205 colon
MDA-MB-435 = system: MDA-MB-435
M14 melanoma = system: M14 melanoma
MALME-3M melanoma = system: MALME-3M melanoma
SK-MEL-2 melanoma = system: SK-MEL-2 melanoma

COc1ccc(Cn2cc3c(c2-c2cc(OC)c(OC)c(OC)c2)CCCc2cnoc2-3)cc1
5040 nM: TGI (RXF 393 renal)
10600 nM: TGI (HCC-2998 colon)
4750 nM: TGI (SNB-75 CNS)
7110 nM: TGI (A498 renal)
5170 nM: TGI (SF-539 CNS)
active: GI50 (HCT-116 colon) 391 nM | GI50 (K-562 leukemia) 422 nM | GI50 (SR leukemia) 359 nM | GI50 (HL-60(TB) leukemia) 350 nM | GI50 (CCRF-CEM leukemia) 415 nM
6900 nM: TGI (NCI-H522 lung)
> 100000 nM: TGI (NCI-H460 lung) | TGI (UACC-257 melanoma) | TGI (SF-268 CNS) | TGI (ACHN renal) | TGI (HT29 colon) | TGI (KM12 colon) | TGI (SNB-19 CNS) | TGI (NCI-H226 lung) | TGI (PC-3 prostate) | TGI (HCT-116 colon) | TGI (NCI-H23 lung) | TGI (MDA-MB-231 breast) | TGI (SF-295 CNS) | TGI (HOP-62 NSCLC) | TGI (MOLT-4 leukemia) | TGI (UO-31 renal) | TGI (OVCAR-5 ovarian) | TGI (CAKI-1 renal) | TGI (RPMI-8226 leukemia) | TGI (SK-MEL-5 melanoma) | TGI (BT-549 breast) | TGI (HS 578T breast) | TGI (EKVX NSCLC) | TGI (MCF7 breast) | TGI (IGROV1 ovarian) | TGI (SN12C renal) | TGI (T-47D breast) | TGI (NCI/ADR-RES ovarian) | TGI (HCT-15 colon) | TGI (UACC-62 melanoma) | TGI (K-562 leukemia) | TGI (A549 NSCLC) | TGI (U251 CNS) | TGI (OVCAR-8 ovarian) | TGI (DU-145 prostate) | TGI (786-0 renal) | TGI (SW-620 colon) | TGI (SK-MEL-28 melanoma) | TGI (TK-10 renal) | TGI (LOX IMVI melanoma) | TGI (SR leukemia) | TGI (HOP-92 NSCLC) | TGI (HL-60(TB) leukemia) | TGI (OVCAR-4 ovarian) | TGI (CCRF-CEM leukemia) | TGI (SK-OV-3 ovarian)
inactive: GI50 (A498 renal) 696 nM | GI50 (NCI-H460 lung) 500 nM | GI50 (UACC-257 melanoma) > 100000 nM | GI50 (SF-539 CNS) 700 nM | GI50 (SF-268 CNS) 4720 nM | GI50 (ACHN renal) 900 nM | GI50 (HT29 colon) 1130 nM | GI50 (KM12 colon) 692 nM | GI50 (SNB-19 CNS) 1530 nM | GI50 (NCI-H226 lung) 1990 nM | GI50 (PC-3 prostate) 849 nM | GI50 (NCI-H23 lung) 2620 nM | GI50 (MDA-MB-231 breast) 2540 nM | GI50 (SF-295 CNS) 511 nM | GI50 (HOP-62 NSCLC) 2220 nM | GI50 (MOLT-4 leukemia) 802 nM | GI50 (UO-31 renal) 924 nM | GI50 (OVCAR-5 ovarian) 3720 nM | GI50 (CAKI-1 renal) 490 nM | GI50 (RPMI-8226 leukemia) 1560 nM | GI50 (SK-MEL-5 melanoma) 2000 nM | GI50 (BT-549 breast) 482 nM | GI50 (HS 578T breast) 1540 nM | GI50 (EKVX NSCLC) 3000 nM | GI50 (MCF7 breast) 437 nM | GI50 (IGROV1 ovarian) 562 nM | GI50 (NCI-H522 lung) 975 nM | GI50 (SN12C renal) 4600 nM | GI50 (T-47D breast) 1850 nM | GI50 (NCI/ADR-RES ovarian) 544 nM | GI50 (HCT-15 colon) 478 nM | GI50 (UACC-62 melanoma) 906 nM | GI50 (RXF 393 renal) 658 nM | GI50 (A549 NSCLC) 2340 nM | GI50 (U251 CNS) 4470 nM | GI50 (SNB-75 CNS) 869 nM | GI50 (OVCAR-8 ovarian) 4300 nM | GI50 (DU-145 prostate) 4110 nM | GI50 (HCC-2998 colon) 1610 nM | GI50 (786-0 renal) 669 nM | GI50 (SW-620 colon) 474 nM | GI50 (SK-MEL-28 melanoma) > 100000 nM | GI50 (TK-10 renal) > 100000 nM | GI50 (LOX IMVI melanoma) 997 nM | GI50 (HOP-92 NSCLC) 1270 nM | GI50 (OVCAR-4 ovarian) 4970 nM | GI50 (SK-OV-3 ovarian) 4180 nM

Fc1ccc(-c2cc3nc(C(Cl)Cl)nc(-c4ccco4)n3n2)cc1
20400 nM: TGI (SK-MEL-2 melanoma)
3990 nM: TGI (SNB-75 CNS)
6700 nM: TGI (OVCAR-5 ovarian)
1340 nM: TGI (ACHN renal)
inactive: GI50 (A498 renal) 1210 nM | GI50 (COLO 205 colon) 624 nM | GI50 (MDA-MB-435) 1540 nM | GI50 (UACC-257 melanoma) 3530 nM | GI50 (SF-539 CNS) 832 nM | GI50 (SF-268 CNS) 1240 nM | GI50 (KM12 colon) 877 nM | GI50 (SNB-19 CNS) 541 nM | GI50 (NCI-H226 lung) > 89500 nM | GI50 (PC-3 prostate) 727 nM | GI50 (NCI-H23 lung) 2440 nM | GI50 (SF-295 CNS) 663 nM | GI50 (HOP-62 NSCLC) 504 nM | GI50 (MOLT-4 leukemia) > 47400 nM | GI50 (UO-31 renal) 1320 nM | GI50 (OVCAR-5 ovarian) 1320 nM | GI50 (CAKI-1 renal) 948 nM | GI50 (RPMI-8226 leukemia) 481 nM | GI50 (SK-MEL-5 melanoma) > 100000 nM | GI50 (BT-549 breast) 35300 nM | GI50 (HS 578T breast) 1450 nM | GI50 (EKVX NSCLC) 1280 nM | GI50 (IGROV1 ovarian) 11600 nM | GI50 (M14 melanoma) > 100000 nM | GI50 (NCI-H522 lung) > 87900 nM | GI50 (SN12C renal) > 100000 nM | GI50 (MALME-3M melanoma) > 100000 nM | GI50 (T-47D breast) 1010 nM | GI50 (NCI/ADR-RES ovarian) 562 nM | GI50 (SK-MEL-2 melanoma) 5360 nM | GI50 (HCT-15 colon) 486 nM | GI50 (UACC-62 melanoma) 3610 nM | GI50 (K-562 leukemia) 1790 nM | GI50 (A549 NSCLC) 770 nM | GI50 (SNB-75 CNS) 638 nM | GI50 (OVCAR-8 ovarian) 809 nM | GI50 (786-0 renal) 2770 nM | GI50 (SK-MEL-28 melanoma) 2460 nM | GI50 (TK-10 renal) 3540 nM | GI50 (LOX IMVI melanoma) > 100000 nM | GI50 (SR leukemia) 17800 nM | GI50 (HOP-92 NSCLC) 541 nM | GI50 (OVCAR-4 ovarian) 2620 nM | GI50 (CCRF-CEM leukemia) > 100000 nM | GI50 (SK-OV-3 ovarian) 2880 nM
3660 nM: TGI (KM12 colon)
27500 nM: TGI (786-0 renal)
5780 nM: TGI (UO-31 renal)
3550 nM: TGI (SW-620 colon)
1100 nM: TGI (HCT-116 colon)
> 49400 nM: TGI (SK-OV-3 ovarian)
2330 nM: TGI (MDA-MB-231 breast)
3240 nM: TGI (MCF7 breast)
3710 nM: TGI (SF-539 CNS)
2620 nM: TGI (A498 renal)
954 nM: TGI (DU-145 prostate)
4030 nM: TGI (RPMI-8226 leukemia)
19600 nM: TGI (UACC-257 melanoma)
6820 nM: TGI (MDA-MB-435)
2700 nM: TGI (U251 CNS)
2510 nM: TGI (RXF 393 renal)
8160 nM: TGI (SF-268 CNS)
4360 nM: TGI (CAKI-1 renal)
16400 nM: TGI (HCT-15 colon)
4860 nM: TGI (EKVX NSCLC)
> 58000 nM: TGI (NCI-H23 lung)
17500 nM: TGI (OVCAR-4 ovarian)
6710 nM: TGI (T-47D breast)
active: GI50 (NCI-H460 lung) 217 nM | GI50 (ACHN renal) 296 nM | GI50 (HT29 colon) 312 nM | GI50 (HCT-116 colon) 310 nM | GI50 (MDA-MB-231 breast) 368 nM | GI50 (MCF7 breast) 273 nM | GI50 (RXF 393 renal) 413 nM | GI50 (U251 CNS) 309 nM | GI50 (DU-145 prostate) 303 nM | GI50 (HCC-2998 colon) 400 nM | GI50 (SW-620 colon) 402 nM | GI50 (HL-60(TB) leukemia) 300 nM
3880 nM: TGI (PC-3 prostate)
2480 nM: TGI (COLO 205 colon)
4910 nM: TGI (HS 578T breast)
6040 nM: TGI (NCI/ADR-RES ovarian)
> 100000 nM: TGI (NCI-H226 lung) | TGI (MOLT-4 leukemia) | TGI (SK-MEL-5 melanoma) | TGI (BT-549 breast) | TGI (IGROV1 ovarian) | TGI (M14 melanoma) | TGI (NCI-H522 lung) | TGI (SN12C renal) | TGI (MALME-3M melanoma) | TGI (K-562 leukemia) | TGI (OVCAR-8 ovarian) | TGI (LOX IMVI melanoma) | TGI (SR leukemia) | TGI (CCRF-CEM leukemia)
6460 nM: TGI (SK-MEL-28 melanoma)
5810 nM: TGI (SNB-19 CNS)
1650 nM: TGI (HCC-2998 colon)
3370 nM: TGI (HOP-92 NSCLC)
7500 nM: TGI (TK-10 renal)
5370 nM: TGI (A549 NSCLC)
> 53800 nM: TGI (UACC-62 melanoma)
2840 nM: TGI (HOP-62 NSCLC)
4080 nM: TGI (SF-295 CNS)
1710 nM: TGI (HT29 colon)
533 nM: TGI (NCI-H460 lung)
